Entries after “also recorded” stand apart in the source; their conditions may differ.
Columns and labels:
[1] = test system: stomach mucosa, submucosa and mucosal glands; assay: Histopathological study of rat stomach; type: in vivo; conditions: rats of the ulcerogenicity test, haematoxylin and eosin stain
Excerpt: The stomachs of the rats used in ulcerogenicity test were subjected to a histopathological study to visualize the deep effects of ibuprofen and tested compounds on the stomach mucosa, submucosa and mucosal glands. The specimens were stained with haematoxylin and eosin stain [33].
The study investigated the deep effect of the tested compounds on the mucosa, submucosa and mucosal gland. The stomachs which were opened longitudinally along the greater curvature were used and the specimens were taken from the stomachs of all cases. These specimens were fixed in 10% formalin solution for 72 h. The samples were processed and embedded in paraffin wax. Microtomy was done and 5 microns tissue sections were obtained and mounted on clean glass slides.

thermal pain (hot plate) = assay: Hot-plate test (analgesic activity); type: in vivo, rat; conditions: IP; for analgesic potency relative to ibuprofen: 0.48 mmol/kg; for analgesic activity (in words): 0.24 and 0.48 mmol/kg, 2 h after injection, compared with ibuprofen
Procedure: A hot-plate was used to induce thermal pain and the cutoff time was fixed to 15 s [30]. […] The analgesic activity of the novel pyrrolizines were carried out using the thermal model (hot-plate test) according to a previous report [30]. An electronically controlled hot-plate (Harvard Apparatus Ltd., Kent, UK) was used and the cut-off time was 15 s and the temperature was adjusted to 52 ± 0.1 °C. Animals were then divided into groups of six animal each. Rats were assigned numbers of 1–6 in each group. The reference drug was given intraperitoneally at a dose of 50 mg/kg (0.24 mmol/kg) and 100 mg/kg (0.48 mmol/kg). […] The response latencies (time elapsed until licking paw or jumping) were measured and expressed as mean ± SEM. The percent changes (analgesic effects) of the tested compounds were calculated as percent change in latencies divided by baseline time (100 × (T1 − T0)/T0) and results were expressed as % change ± SEM, Figure 6.

rat stomach mucosa = assay: Acute ulcerogenicity study; type: in vivo; conditions: oral, 0.48 mmol/kg; for Ulcerogenicity UI (ulcer index): three days, n = 6
Procedure: GIT toxicity is the main serious side effect of the NSAIDs. In this work, the ulcerogenicity of the novel compounds 12–19 was evaluated according to the previous reported methodology. The tested compounds 12–19 and ibuprofen were given orally in a dose of 0.48 mmol/kg.
(§1) Adult albino rats of both sex weighing 100–140 g were used in evaluation of the anti-inflammatory, analgesic, ulcerogenic activity in addition to the histopathological study of the new pyrrolizines 12–19. Animal ethical use clearance was obtained from the Ethical Committee at the College of Pharmacy, Umm Al-Qura University. Normalization of the animals with laboratory conditions were achieved by keeping them in laboratory one week before starting the experiments. Standard rat pellet diet was used for feeding animals and water ad libitum.
GIT toxicity was evaluated according to the previous report. Adult albino rats of both sexes were divided into groups of six animals each. The test compounds were dissolved first in 0.5 mL DMSO, then CMC (1%) was added dropwise with trituration. Rats were fasted 20 h before drug administration. The eight tested compounds and ibuprofen were given orally in a dose of 0.24 and 0.48 mmol/kg/day suspended in 1% CMC, while the control group received vehicle (1% CMC containing few drops of DMSO). Rats were then fasted for 2 h, allowed to feed for 2 h then fasted again for another 20 h. Other doses were given in the second and third days. In the fourth day, Pentobarbital (60 mg/kg IP) was used to induce deep anesthesia then rats were sacrificed. The stomachs were removed, opened along with the greater curvature and rinsed with 0.9% saline. The number of mucosal damages (red spots) were counted using magnifying lens and their severity (ulcerogenic severity) was graded in a scale from 0 to 3 as follows: (0) normal (no injury), (0.5) red coloration, (1) spot ulcer, (1.5) hemorrhagic streaks, (2) ulcer > 3 mm, (3) ulcer > 5 mm. The ulcer index was calculated using the following equation ulcer index (UI) = UN + US + UP/10, where UN is the average number pf ulcers per animal, US is the average of severity score, UP is the percent of animal with ulcer.

COX-1 (ovine) = biological target: T1, COX-1 (ovine) (Ovis aries, UniProt P05979); assay: COX colorimetric inhibitor screening assay, COX-1
T1 sequence (P05979 25-600): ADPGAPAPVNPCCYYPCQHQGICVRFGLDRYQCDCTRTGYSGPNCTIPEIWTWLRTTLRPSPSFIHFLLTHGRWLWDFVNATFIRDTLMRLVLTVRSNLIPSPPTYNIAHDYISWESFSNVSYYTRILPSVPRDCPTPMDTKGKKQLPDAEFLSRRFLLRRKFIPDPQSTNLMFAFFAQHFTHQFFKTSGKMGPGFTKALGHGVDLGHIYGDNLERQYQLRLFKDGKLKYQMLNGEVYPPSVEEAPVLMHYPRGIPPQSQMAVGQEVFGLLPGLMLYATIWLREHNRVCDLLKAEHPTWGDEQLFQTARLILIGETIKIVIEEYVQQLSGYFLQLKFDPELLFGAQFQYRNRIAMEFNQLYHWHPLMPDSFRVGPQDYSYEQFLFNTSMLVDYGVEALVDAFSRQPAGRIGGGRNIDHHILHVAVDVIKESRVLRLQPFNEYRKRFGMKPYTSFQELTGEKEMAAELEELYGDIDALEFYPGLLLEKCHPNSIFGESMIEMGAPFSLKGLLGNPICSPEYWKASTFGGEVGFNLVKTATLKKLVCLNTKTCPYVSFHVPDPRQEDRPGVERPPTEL

[2] = test system: carrageenan-induced rat paw edema; assay: Carrageenan-induced rat paw edema model (anti-inflammatory activity); type: in vivo; parameters: key to Potency (anti-inflammatory activity of tested compound/ibuprofen): ratio of % inhibition of edema (compound / ibuprofen); ibuprofen = 1.00; conditions: for % Inhibition in Edema Thickness 1 h: 1 h after induction of inflammation; for % Inhibition in Edema Thickness 1 h / % Inhibition in Edema Thickness 2 h / % Inhibition in Edema Thickness 3 h: IP, dose molecularly equivalent to ibuprofen, n = 6; for % Inhibition in Edema Thickness 2 h: 2 h after induction of inflammation; for % Inhibition in Edema Thickness 3 h: 3 h after induction of inflammation; for Potency (anti-inflammatory activity of tested compound/ibuprofen): after 3 h of induction of inflammation, relative to ibuprofen; for anti-inflammatory activity (in words): compared with ibuprofen and parent compound 12
Excerpt: The carrageenan-induced rat paw edema model was utilized to investigate the anti-inflammatory activity of compounds 12–19 relative to ibuprofen as a reference drug.
as §1
The anti-inflammatory activity of the novel compounds 12–19 was evaluated in comparison with ibuprofen as a standard, using a rat paw edema model as described by Winter et al.. Adult albino rats of both sexes (100–140 gm) were used. Rats were uniformly hydrated by giving 3 mL water for each rat through gastric inoculation to reduce variability to edema response. Animals were then divided into groups of six animal each. The control group was given saline solution containing few drops of sodium carboxymethyl cellulose (CMC) 1% and DMSO. Ibuprofen (50 and 100 mg/kg) was given as standard drug. The new compounds 12–19 in a dose molecularly equivalent to ibuprofen were dissolved in 0.5 mL DMSO and CMC 1% was added dropwise with continuous triturating to complete the specified volume. The tested compounds were administered intraperitoneally (IP). The induction of inflammation was achieved by subcutaneous (SC) injection of carrageenan-sodium gel, into the sub-plantar region of the right hind paw. The dorsoventral diameter (thickness) of the right and left hind paw of each rat was measured using digital calipers with accuracy of 0.01 mm (Cole-Parmer, Vernon Hills, IL, USA). The thickness of edema was measured 1, 2 and 3 h after induction of inflammation. The left hind paw diameter served as a control for the degree of inflammation in the right hind paw. The changes in the edema thickness were expressed as mean ± SEM, Figure 4. The anti-inflammatory activity was calculated as % inhibition of inflammation = (1 − Lt/Lc) × 100. Where Lt is the mean increase in paw thickness in rats treated with the tested compounds and Lc is the mean increase in paw thickness in control group. Data were collected, and statistically analyzed by One way ANOVA followed by student-Newman-Keuls multiple comparison test, Table 2.

[3] = biological target: T2, COX-2 (human recombinant) (Homo sapiens, UniProt P35354); assay: COX colorimetric inhibitor screening assay, COX-2; conditions: for SI (COX-2 selectivity index = IC50 of COX-1/IC50 of COX-2): in vitro
T2 sequence (P35354 18-604): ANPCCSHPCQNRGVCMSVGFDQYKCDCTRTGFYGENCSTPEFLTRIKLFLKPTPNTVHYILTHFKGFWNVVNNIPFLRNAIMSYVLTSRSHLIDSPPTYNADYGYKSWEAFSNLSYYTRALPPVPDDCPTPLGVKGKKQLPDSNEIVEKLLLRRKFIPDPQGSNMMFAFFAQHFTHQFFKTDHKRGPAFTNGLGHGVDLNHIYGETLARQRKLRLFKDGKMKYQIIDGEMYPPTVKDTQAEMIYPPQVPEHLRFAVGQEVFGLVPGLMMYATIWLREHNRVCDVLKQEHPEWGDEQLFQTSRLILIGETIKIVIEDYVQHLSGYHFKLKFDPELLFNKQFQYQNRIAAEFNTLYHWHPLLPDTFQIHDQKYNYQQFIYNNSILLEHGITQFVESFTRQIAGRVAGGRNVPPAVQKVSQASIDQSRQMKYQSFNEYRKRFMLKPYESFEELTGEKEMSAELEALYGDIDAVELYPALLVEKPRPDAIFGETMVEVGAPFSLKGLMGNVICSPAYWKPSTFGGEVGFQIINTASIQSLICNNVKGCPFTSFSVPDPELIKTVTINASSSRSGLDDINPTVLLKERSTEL

| IC50 (COX-1 (ovine)) [nM] | IC50 [3] [nM] | SI (COX-2 selectivity index = IC50 of COX-1/IC50 of COX-2) [3] | SMILES | histopathological findings in stomach transverse sections [1] | analgesic potency relative to ibuprofen (thermal pain (hot plate)) [times] | analgesic activity (in words) (thermal pain (hot plate)) | Ulcerogenicity UI (ulcer index) (rat stomach mucosa) | Ulcerogenicity % Protection (% inhibition of ulcer relative to ibuprofen) (rat stomach mucosa) [%] | % Inhibition in Edema Thickness 1 h [2] [%] | % Inhibition in Edema Thickness 2 h [2] [%] | % Inhibition in Edema Thickness 3 h [2] [%] | Potency (anti-inflammatory activity of tested compound/ibuprofen) [2] | anti-inflammatory activity (in words) [2] |
| --- | --- | --- | --- | --- | --- | --- | --- | --- | --- | --- | --- | --- | --- |
| 3370 | 1060 | – | N#Cc1c2c(n3c1CCC3)C(=O)N(c1ccc(Br)cc1)CC(=O)N2 [Compound 15, 4-(4-Bromophenyl)-2,5-dioxo-1,2,3,4,5,7,8,9-octahydro-[1,4]diazepino[5,6-b]pyrrolizine-10-carbonitrile] | little histopathological effects such as congested blood vessels and variable degrees of leukocytes infiltration | – | lower than that of ibuprofen | – | – | 10.60 | 16.54 | 24.91 | 0.61 | – |
| 2450 | 850 | 2.89 | N#Cc1c(NC(=O)c2ccccc2)c(C(=O)Nc2ccc(Br)cc2)n2c1CCC2 [Compound 16, 6-Benzamido-N-(4-bromophenyl)-7-cyano-2,3-dihydro-1H-pyrrolizine-5-carboxamide] | normal mucosal glands with no histopathological effects | 1.03 to 1.27 | higher analgesic activity than ibuprofen; also recorded: good activity comparable to that of ibuprofen | 2.26 | 83.69 | 29.95 | 37.80 | 50.58 | 1.24 | – |

More lines, now with the values behind:

| SMILES | IC50 (COX-1 (ovine)) [nM] | IC50 [3] [nM] | SI (COX-2 selectivity index = IC50 of COX-1/IC50 of COX-2) [3] | histopathological findings in stomach transverse sections [1] | analgesic potency relative to ibuprofen (thermal pain (hot plate)) [times] | analgesic activity (in words) (thermal pain (hot plate)) | Ulcerogenicity UI (ulcer index) (rat stomach mucosa) | Ulcerogenicity % Protection (% inhibition of ulcer relative to ibuprofen) (rat stomach mucosa) [%] | % Inhibition in Edema Thickness 1 h [2] [%] | % Inhibition in Edema Thickness 2 h [2] [%] | % Inhibition in Edema Thickness 3 h [2] [%] | Potency (anti-inflammatory activity of tested compound/ibuprofen) [2] | anti-inflammatory activity (in words) [2] |
| --- | --- | --- | --- | --- | --- | --- | --- | --- | --- | --- | --- | --- | --- |
| N#Cc1c(N)c(C(=O)Nc2ccc(Br)cc2)n2c1CCC2 [Compound 12, 6-Amino-N-(4-bromophenyl)-7-cyano-2,3-dihydro-1H-pyrrolizine-5-carboxamide] | 4640 | 1270 | 3.64 | variable degrees of necrosis with some leukocytes infiltration | 1.03 to 1.27 | higher analgesic activity than ibuprofen | 4.66 | 66.38 | 21.20 | 37.40 | 44.79 | 1.10 | higher anti-inflammatory activity than that of ibuprofen |
| N#Cc1c(NC(=O)CCl)c(C(=O)Nc2ccc(Br)cc2)n2c1CCC2 [Compound 13, N-(4-Bromophenyl)-6-(2-chloroacetamido)-7-cyano-2,3-dihydro-1H-pyrrolizine-5-carboxamide] | 5690 | 1640 | 3.48 | variable degrees of necrosis with some leukocytes infiltration | 1.03 to 1.27 | higher analgesic activity than ibuprofen | 4.41 | 68.18 | 16.13 | 35.43 | 52.31 | 1.28 | the highest anti-inflammatory activity |
| CN1CCN(CC(=O)Nc2c(C#N)c3n(c2C(=O)Nc2ccc(Br)cc2)CCC3)CC1 [Compound 14, N-(4-Bromophenyl)-7-cyano-6-(2-(4-methylpiperazin-1-yl)acetamido)-2,3-dihydro-1H-pyrrolizine-5-carbox-amide] | 3500 | 1090 | 3.21 | variable degrees of necrosis with some leukocytes infiltration | – | lower than that of ibuprofen; also recorded: the least active | 4.66 | 66.38 | 8.30 | 9.84 | 16.37 | 0.40 | the least active one |
| CC(C)Cc1ccc(C(C)C(=O)O)cc1 (centres unmarked) [Ibuprofen, reference compound] | – | – | – | severe damage represented by leukocytes infiltration and necrosis in the mucosa layer with hypertrophy in mucosal glands | – | – | 13.86 | 0 | 25.81 | 33.46 | 40.82 | 1.00 | – |

— article PMC6273963, “Design, Synthesis, and Biological Evaluation of Some Novel Pyrrolizine Derivatives as COX Inhibitors with Anti-Inflammatory/Analgesic Activities and Low Ulcerogenic Liability” (Molecules, 2016)
